Drawing on PMC12311952, “Mechanism of SC targeting RhoA regulation and its potential value in gastric cancer therapy” (Biochemistry and Biophysics Reports, 2025), this text covers Kd for 1 compound.

The assay addresses RhoA (Homo sapiens, UniProt P61586). Kind of assay: SPR (Biacore T200, RhoA immobilized on CM5 chip, […] Langmuir fit). Format: binding. In general terms: Surface plasmon resonance follows binding to a sensor surface in real time, without labels.

Sequence of RhoA (P61586 1-190): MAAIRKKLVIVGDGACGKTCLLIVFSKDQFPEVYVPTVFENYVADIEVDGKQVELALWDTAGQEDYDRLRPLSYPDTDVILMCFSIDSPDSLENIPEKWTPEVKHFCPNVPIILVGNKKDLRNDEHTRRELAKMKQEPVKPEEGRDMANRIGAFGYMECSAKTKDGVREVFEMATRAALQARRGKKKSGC

`O=C(/C=C/CCc1ccc(O)c(O)c1)CCCCc1ccc(O)c(O)c1` [compound 5, (E)-1,9-bis(3,4-dihydroxyphenyl)non-3-en-5-one] registered a dissociation constant Kd of 1590 nM.

One may read the Kd as a measure of binding affinity in units of concentration. Higher therefore signals weaker binding.
